Measurements: patent publication US20210177722A1, “Phytic Acid Ester Derivative” (NATIONAL UNIVERSITY CORPORATION KUMAMOTO UNIVERSITY, priority 2018, published 2021)

Tests used:
Akt = assay: Western blotting (1), anti-phospho-Akt (Thr308) antibody, Jurkat cell; assay type: cell-based, human; conditions: 8 hours or 24 hours
Protocol: In this example, the action mechanism for killing cells by Pro-IP6 was studied by Wester blotting using a Jurkat cell and various antibodies. Jurkat cells (1×10^5 cells/well, culture fluid: 500 μL) were seeded in a 24-well plate to be cultured overnight. Thereafter, DMSO (1%, Fujifilm Wako Pure Chemical Corporation), an aqueous solution (1%) of IP6 (final concentration: 10 μM, Sigma Aldrich), or a DMSO solution (1%) of Pro-IP6 (final concentration: 1 μM or 10 μM) was added thereto, followed by culturing for 8 hours or 24 hours. A supernatant was removed, the resultant was washed with 1× PBS (−) once, Laemmli sample buffer was added thereto, and the resultant was boiled at 100° C. for 1 hour to dissolve the cells. […] Detection was performed using ImmunoStar LD (Fujifilm Wako Pure Chemical Corporation).

[1] = system: S1T cell (ATL cell line) tumor; assay: Effect on HTLV-1 infected cell-transplanted mouse (ATL model); assay type: in vivo; conditions: day 28 after transplantation, 20 mg/kg per day intraperitoneally for 28 days, NSG mice with S1T cells
From the text: In this example, the in vivo effect of Pro-IP6 on an HTLV-1 infected cell-transplanted mouse was checked. HTLV-1 (human T cell leukemia virus 1) mainly infects CD4-positive T lymphocyte, and when the infected cell cancerates, refractory malignant tumor, adult T-cell leukemia (ATL) is caused. In this example, S1T cell, that is, one of ATL cell lines, was used.
5-Week-old female NSG mice (NOD. Cg-Prkdc scid I12rg tm1Wjl/SzJ, Charles River Laboratories Japan, Inc.) were used. Five mice each in each of two cages, namely, ten mice in total, were raised with sterilized bedding (Pepar Clean: Japan SLC, Inc.) placed in a sterilized cage (Clea Japan, Inc.). […]
The control group was dosed with DMSO, and the IP6 administration group and the pro-IP6 administration group were intraperitoneally dosed respectively with IP6 in an amount of 7.1 mg/kg and pro-IP6 in an amount of 20 mg/kg. The mice were dosed continuously for 28 days after the day of the cell transplantation, and the weight and the tumor volume of each mouse were measured every day. The tumor volume was defined as (shorter diameter in mm)^2×(longer diameter in mm)×0.5, and the shorter diameter and the longer diameter were measured with a caliper. […] Subsequently, the tumor was totally removed, and the tumor volume and the tumor weight of each tumor were measured.

HeLa cell = assay: Quantitative determination of IP6 in cell (LC/MS of IP6 methyl ester); assay type: cell-based; conditions: HeLa cells, 10 μM, 30 minutes
Protocol: In this example, incorporation of Pro-IP6 into a HeLa cell was quantitatively determined.
HeLa cells (5×10^5 cells/well, culture fluid: 1 mL) were seeded in a 3.5 cm dish to be cultured for 24 hours. Thereafter, DMSO (1%, Fujifilm Wako Pure Chemical Corporation), an aqueous solution (1%) of IP6 (final concentration: 10 μM, Sigma Aldrich), or a DMSO solution (1%) of Pro-IP6 (final concentration: 10 μM) synthesized in Example 1 was added thereto, and the resultant was cultured for another 30 minutes. HeLa cells were cultured with neither IP6 nor Pro-IP6 added, followed by adding the same amount of DMSO thereto, and the resultant was used as a negative control.
Thereafter, the resultant was washed with 1× PBS (−) once, and the resultant cells were scraped with a cell scraper, transferred to a 1.5 mL tube, and washed with 1× PBS (−) three times. To the thus obtained precipitate, 350 μl of MeOH (Fujifilm Wako Pure Chemical Corporation) and 1% NP-40 (Nacalai Tesque, Inc.) were added, followed by sonication (10 minutes). After equilibrating a column (Oasis WAX 1cc, Waters) with MeOH (1 mL) and H2O (1 mL), a disrupted cell extract was added thereto. Thereafter, the column was washed with 50% MeOH (1 mL), and eluted with 50% MeOH (200 μL×2) containing 2 mol/L of HCl (Fujifilm Wako Pure Chemical Corporation). The thus obtained eluate was concentrated, and dissolved in MeOH (50 μL), and trimethylsilyldiazomethane (200 μl, Tokyo Chemical Industry Co., Ltd.) was added thereto, followed by stirring at 50° C. for 1 hour under argon atmosphere. The reaction was stopped by adding H2O (100 μL). Through a reaction of trimethylsilyidiazomethane with IP6, IP6 methyl ester is obtained.
The thus obtained sample (IP6 methyl ester) was measured by LC/MS [column: MastroC18 2.1 mm×100 mm, […] (Shimadzu GLC Ltd.), mobile phase: 0.1% formic acid solution (Fujifilm Wako Pure Chemical Corporation), acetonitrile (Fujifilm Wako Pure Chemical Corporation)] [LC:LC-20AD (Shimadzu), MS: amaZon speed (BRUKER)].

SMILES: CCCC(=O)OCOP(=O)(OCOC(=O)CCC)O[C@H]1[C@H](OP(=O)(OCOC(=O)CCC)OCOC(=O)CCC)[C@@H](OP(=O)(OCOC(=O)CCC)OCOC(=O)CCC)[C@H](OP(=O)(OCOC(=O)CCC)OCOC(=O)CCC)[C@@H](OP(=O)(OCOC(=O)CCC)OCOC(=O)CCC)[C@H]1OP(=O)(OCOC(=O)CCC)OCOC(=O)CCC [Pro-IP6, myo-inositol hexaphosphate dodecakis(butyryloxymethyl) ester]
- phosphorylation of Akt (Akt; 1 μM): inhibits phosphorylation of Akt
- phosphorylation of Akt (Akt; 10 μM): inhibits phosphorylation of Akt
- tumor volume smaller as compared with that of the control group [1]: about 25%
- incorporation into HeLa cell (IP6 methyl ester by LC/MS vs negative control) (HeLa cell): well incorporated
- amount of IP6 methyl ester observed in cell relative to that of IP6 (HeLa cell; LC/MS): not less than 200 times
